The experiment deals with T1, M. SssI (Spiroplasma monobiae, UniProt P15840).
T1 construct: gene sssIM
Briefly: in vitro DNA methylation assay with biotin/digoxigenin-labelled ds-oligonucleotide, HpaII cleavage and fluorescence readout. The format is biochemical.

The text below walks through data of paper PMC5470982, “Thymoquinone exerts potent growth-suppressive activity on leukemia through DNA hypermethylation reversal in leukemia cells” (Oncotarget, 2017).

T1 sequence (P15840 whole entry, looked up): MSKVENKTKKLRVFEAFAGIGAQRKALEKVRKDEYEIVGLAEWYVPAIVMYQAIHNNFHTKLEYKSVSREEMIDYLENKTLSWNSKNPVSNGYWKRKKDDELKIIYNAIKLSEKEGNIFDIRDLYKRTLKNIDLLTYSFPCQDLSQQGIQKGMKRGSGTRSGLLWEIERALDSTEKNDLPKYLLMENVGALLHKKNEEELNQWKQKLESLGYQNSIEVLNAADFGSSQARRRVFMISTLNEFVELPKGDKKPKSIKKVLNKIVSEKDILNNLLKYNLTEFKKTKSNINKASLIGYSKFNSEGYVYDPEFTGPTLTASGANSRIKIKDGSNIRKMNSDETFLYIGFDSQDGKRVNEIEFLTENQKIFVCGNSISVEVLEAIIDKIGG

As to `CC1=CC(=O)C(C(C)C)=CC1=O` [TQ, thymoquinone], the IC50 (as a rule, the concentration that inhibits the measured activity by half) amounted to 30 nM.
